Assay results taken from US20100036088A1, “Selective poly-N-substituted glycine antibiotics” (priority 2008, published 2010).
pIC50: −log10 of the molar value. Read-outs that look alike come from different tables or passages of the source. Marks after values point to notes of the source that are not given here. Square brackets hold non-standard residues; d marks the D form. Peptide text beside a SMILES is read from it. Nspe = C[C@H](NCC(=O)O)c1ccccc1; NDecylGly = CCCCCCCCCCNCC(=O)O; NPentylGly = CCCCCNCC(=O)O; Nlys = NCCCCNCC(=O)O

Key:
[1] = test system: Candida albicans (SC5314); assay type: cell-based, C. albicans
Protocol: Additionally, in order to characterize possible antifungal activity, a library of alkylated compounds was tested against C. albicans, a representative fungal strain.
Antifungal Assays. MICs were determined using the broth microdilution assay given by CLSI M27-A2 protocols. Candida albicans (SC5314) was grown on Sabouraud dextrose agar for 24 hours at 30° C. Cells were suspended in 0.145 M saline, and the cell concentration was adjusted to 3×10^6 cells/mL. After adjusting the cell concentration, the suspension was diluted 1:1000 with RPMI 1640 (with L-glutamine and without sodium bicarbonate, Invitrogen) buffered with 0.145 M 3-(N-morpholino) propanesulfonic acid (MOPS). Two-fold serial dilutions of peptoids, peptides, and amphotericin B (Calbiochem) were prepared in RPMI 1640 and mixed with an equal volume of the cell suspension in 96-well plates. The final testing concentrations for the peptoids and peptides were 0.20 to 100 μM, and concentrations for amphotericin B were 0.031 to 16 μM. Growth controls and sterility controls were also included. Plates were incubated for 48 hours at 35° C., and growth of C. albicans was inspected visually to determine the MICs. The MIC for each compound was defined as the lowest concentration with no visible fungal growth. Experiments were performed in duplicate on two separate days.

[2] = test system: E. coli; assay type: cell-based
Protocol: (§1) Antibacterial assays. MICs were determined according to CLSI M7-A6 protocols in a 96-well microtiter plate. In test wells, 50 μL bacterial inoculum (5×10^5 CFU/ml) in Mueller-Hinton broth (MHB) was added to 50 μL peptoid solution in MHB (prepared by 1:2 serial dilutions). Positive controls contained 50 μL inoculum and 50 μL MHB without peptoid. […] MIC values reported were reproducible between three independent experimental replicates, each consisting of two parallel trials. Broad-spectrum antimicrobial susceptibility testing was performed against BSL2 pathogens by Nova Biologicals, Inc. (Conroe, Tex.).
(§2) Screening antibacterial assays. MICs were determined in 96-well microtiter plates in accordance with CLSI M7-A6 protocols. Peptoid solutions with 50 μL total volume were prepared using 2:1 serial dilutions. 50 μL of bacteria inoculum (1×10^6 CFU/mL) prepared in cation-adjusted Mueller-Hinton broth (CAMHB) was added to test wells. Control wells contained 100 μL MHB (no growth) or 50 μL inoculums with 50 μL MHB with no peptoid. […] Reported values were reproducible over three experiments, each containing two parallel trials.

[3] = test system: B. subtilis; assay type: cell-based
Protocol: as §1, §2

[4] = test system: human erythrocytes; test: Hemolysis assay; assay type: cell-based; conditions: for HD10 (10% hemolytic dose) / HD50 (50% hemolytic dose): red cells of human, 1 h
How it was run: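 Peptoid serial dilutions in PBS pH 7.4 were combined with an equal volume of 20 vol % washed human red cells (heparinised blood) for 1 h at 37 °C. After dilution and pelleting at 1200 g, released haemoglobin in supernatant was read at A350, scaled between PBS and 0.2 vol % Triton X-100 controls.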

[5] = MTS assay, metabolic inhibition; assay type: cell-based, mouse
How it was run: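 NIH/3T3 cells seeded at 5,000 per well, grown a day, then exposed to serially diluted peptoids in HBSS together with MTS reagent. Absorbance at 490 nm read after 3 hours at 37° C.; mean of six replicates.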

[6] = test system: B. subtilis (ATCC 6633); assay type: cell-based; conditions: ATCC 6633
How it was run: (§3)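 MICs by broth microdilution per CLSI M7-A6 in cation-adjusted Mueller-Hinton broth, using 2:1 serial dilutions of peptoid and a bacterial inoculum of 1×10^6 CFU/mL. Values reproducible over three experiments, each with two parallel trials.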

[7] = test system: E. coli (ATCC 35218); assay type: cell-based; conditions: ATCC 35218
How it was run: as §3

C. albicans MIC ([1]; SC5314, 48 h) [µM] | E. coli MIC [2] | B. subtilis MIC [3] | pIC50 [5] | B. subtilis MIC [6] [µM] | E. coli MIC [7] [µM] | C. albicans MIC ([1]; SC5314) [µM] | Compound | HD10 [4] | HD50 [4] | HD10 (10% hemolytic dose) [4] | HD50 (50% hemolytic dose) [4]
>100 | 27* μM | 27* μM | – | – | – | – | C[C@@H](c1ccccc1)N(CC(N)=O)C(=O)CN(C(=O)CN(CCCCN)C(=O)CN(C(=O)CN(C(=O)CNCCCCN)[C@@H](C)c1ccccc1)[C@@H](C)c1ccccc1)[C@@H](C)c1ccccc1 [16 mer, H-(Nlys-Nspe-Nspe)2-NH2] (H-[Nlys][Nspe][Nspe][Nlys][Nspe][Nspe]-NH2) | >220/>220 μM | >220/>220 μM | >220/>220 μM | >220/>220 μM
15.6 | 25 µM | 1.6 µM | – | – | – | – | C[C@@H](c1ccccc1)N(CC(N)=O)C(=O)CN(C(=O)CN(CCCCN)C(=O)CN(C(=O)CN(C(=O)CN(CCCCN)C(=O)CN(C(=O)CN(C(=O)CNCCCCN)[C@@H](C)c1ccccc1)[C@@H](C)c1ccccc1)[C@@H](C)c1ccccc1)[C@@H](C)c1ccccc1)[C@@H](C)c1ccccc1 [19 mer, H-(Nlys-Nspe-Nspe)3-NH2] (H-[Nlys][Nspe][Nspe][Nlys][Nspe][Nspe][Nlys][Nspe][Nspe]-NH2) | 150 µM | > 200 µM | >150/>150 μM | >150/>150 μM
– | – | – | 5.25 | 0.78 | 3.1 | – | C[C@@H](c1ccccc1)N(CC(=O)N(CCCCN)CC(=O)N(CC(=O)N(CC(=O)N(CCCCN)CC(=O)N(CC(=O)N(CC(=O)N(CCCCN)CC(=O)N(CC(=O)N(CC(=O)N(CCCCN)CC(N)=O)[C@@H](C)c1ccccc1)[C@@H](C)c1ccccc1)[C@@H](C)c1ccccc1)[C@@H](C)c1ccccc1)[C@@H](C)c1ccccc1)[C@@H](C)c1ccccc1)C(=O)CN(C(=O)CNCCCCN)[C@@H](C)c1ccccc1 [113mer, H-(Nlys-Nspe-Nspe)4-Nlys-NH2] (H-[Nlys][Nspe][Nspe][Nlys][Nspe][Nspe][Nlys][Nspe][Nspe][Nlys][Nspe][Nspe][Nlys]-NH2) | 21 µM | > 100 µM | – | –
– | 6.3 µM | 1.6 µM | – | – | – | 6.3 | CCCCCNCC(=O)N(CCCCN)CC(=O)N(CC(=O)N(CC(=O)N(CCCCN)CC(=O)N(CC(=O)N(CC(=O)N(CCCCN)CC(=O)N(CC(=O)N(CC(=O)N(CCCCN)CC(=O)N(CC(=O)N(CC(N)=O)[C@@H](C)c1ccccc1)[C@@H](C)c1ccccc1)[C@@H](C)c1ccccc1)[C@@H](C)c1ccccc1)[C@@H](C)c1ccccc1)[C@@H](C)c1ccccc1)[C@@H](C)c1ccccc1)[C@@H](C)c1ccccc1 [C5-1] (H-[NPentylGly][Nlys][Nspe][Nspe][Nlys][Nspe][Nspe][Nlys][Nspe][Nspe][Nlys][Nspe][Nspe]-NH2) | 10 µM | 40 µM | – | –
– | >200 µM | 3.1 µM | – | – | – | 100 | CCCCCNCC(=O)N(CCCCN)CC(=O)N(CC(=O)N(CC(=O)N(CCCCN)CC(=O)N(CC(=O)N(CC(N)=O)[C@@H](C)c1ccccc1)[C@@H](C)c1ccccc1)[C@@H](C)c1ccccc1)[C@@H](C)c1ccccc1 [C5-16 mer] (H-[NPentylGly][Nlys][Nspe][Nspe][Nlys][Nspe][Nspe]-NH2) | >200/>200 μM | >200/>200 μM | – | –
– | 16.3 µM | 1.0 µM | – | – | – | 12.5 | CCCCCNCC(=O)N(CCCCN)CC(=O)N(CC(=O)N(CC(=O)N(CCCCN)CC(=O)N(CC(=O)N(CC(=O)N(CCCCN)CC(=O)N(CC(=O)N(CC(N)=O)[C@@H](C)c1ccccc1)[C@@H](C)c1ccccc1)[C@@H](C)c1ccccc1)[C@@H](C)c1ccccc1)[C@@H](C)c1ccccc1)[C@@H](C)c1ccccc1 [C5-19 mer] (H-[NPentylGly][Nlys][Nspe][Nspe][Nlys][Nspe][Nspe][Nlys][Nspe][Nspe]-NH2) | 65 µM | > 200 µM | – | –
– | 12.5 µM | 1.6 µM | – | – | – | 1.6 | CCCCCCCCCCNCC(=O)N(CCCCN)CC(=O)N(CC(=O)N(CC(=O)N(CCCCN)CC(=O)N(CC(=O)N(CC(=O)N(CCCCN)CC(=O)N(CC(=O)N(CC(=O)N(CCCCN)CC(=O)N(CC(=O)N(CC(N)=O)[C@@H](C)c1ccccc1)[C@@H](C)c1ccccc1)[C@@H](C)c1ccccc1)[C@@H](C)c1ccccc1)[C@@H](C)c1ccccc1)[C@@H](C)c1ccccc1)[C@@H](C)c1ccccc1)[C@@H](C)c1ccccc1 [C10-1] (H-[NDecylGly][Nlys][Nspe][Nspe][Nlys][Nspe][Nspe][Nlys][Nspe][Nspe][Nlys][Nspe][Nspe]-NH2) | 8 µM | 27 µM | – | –
– | >100 µM | 6.3 µM | – | – | – | 100 | CCCCCCCCCCNCC(=O)N(CCCCN)CC(=O)N(CC(=O)N(CC(=O)N(CCCCN)CC(N)=O)[C@@H](C)c1ccccc1)[C@@H](C)c1ccccc1 [C10-14 mer] (H-[NDecylGly][Nlys][Nspe][Nspe][Nlys]-NH2) | >200/>200 μM | >200/>200 μM | – | –
– | 6.3 µM | 1.6 µM | – | – | – | 6.25 | CCCCCCCCCCNCC(=O)N(CCCCN)CC(=O)N(CC(=O)N(CC(=O)N(CCCCN)CC(=O)N(CC(=O)N(CC(N)=O)[C@@H](C)c1ccccc1)[C@@H](C)c1ccccc1)[C@@H](C)c1ccccc1)[C@@H](C)c1ccccc1 [C10-16 mer] (H-[NDecylGly][Nlys][Nspe][Nspe][Nlys][Nspe][Nspe]-NH2) | 30 µM | 80 µM | – | –
– | 6.3 µM | 3.1 µM | – | – | – | 3.1 | CCCCCCCCCCNCC(=O)N(CCCCN)CC(=O)N(CC(=O)N(CC(=O)N(CCCCN)CC(=O)N(CC(=O)N(CC(=O)N(CCCCN)CC(=O)N(CC(=O)N(CC(N)=O)[C@@H](C)c1ccccc1)[C@@H](C)c1ccccc1)[C@@H](C)c1ccccc1)[C@@H](C)c1ccccc1)[C@@H](C)c1ccccc1)[C@@H](C)c1ccccc1 [C10-19 mer] (H-[NDecylGly][Nlys][Nspe][Nspe][Nlys][Nspe][Nspe][Nlys][Nspe][Nspe]-NH2) | 12 µM | 40 µM | – | –
